Target: hS1P3 (Homo sapiens, UniProt Q99500)
Assay: Suppressive effect on S1P-induced increase in [Ca2+]i, CHO-K1 cells expressing S1P3 (Fura 2-AM), IC50
Assay type: cell-based
Details: S1P solution 50 nmol/L, read-out: hS1P3 suppression IC50

hS1P3, sequence (Q99500 whole entry): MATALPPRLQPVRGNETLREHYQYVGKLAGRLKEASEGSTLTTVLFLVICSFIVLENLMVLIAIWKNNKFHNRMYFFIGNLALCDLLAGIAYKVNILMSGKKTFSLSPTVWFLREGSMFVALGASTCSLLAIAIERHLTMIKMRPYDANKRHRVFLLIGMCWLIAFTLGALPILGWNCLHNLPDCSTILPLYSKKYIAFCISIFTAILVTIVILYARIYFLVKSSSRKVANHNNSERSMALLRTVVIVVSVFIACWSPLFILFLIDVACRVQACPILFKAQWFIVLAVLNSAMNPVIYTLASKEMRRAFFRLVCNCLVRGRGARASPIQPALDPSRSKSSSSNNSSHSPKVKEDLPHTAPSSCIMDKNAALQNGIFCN

Compound | IC50 [µM]
O=C(C(=NNc1ccc(Cl)cc1)Nc1cccc(F)c1)c1ccccc1 [Compound 1, 2-(4-Chlorophenylhydrazono)-2-(3-fluorophenylamino)acetophenone] | 6.72
O=C(C(=NNc1ccc(Cl)cc1)Nc1cc(Cl)nc(Cl)c1)c1ccccc1 [Compound 4, 2-(4-chlorophenylhydrazono)-2-(2,6-dichloropyridin-4-ylamino)acetophenone] | 2.81
O=C(C(=NNc1ccc(Cl)cc1)Nc1ccc(F)cc1)c1ccccc1 [Compound 9, 2-(4-chlorophenylhydrazono)-2-(4-fluorophenylamino)acetophenone] | 4.57
O=C(C(=NNc1ccc(Cl)cc1)Nc1cccc(Cl)c1)c1ccccc1 [Compound 11, 2-(3-chlorophenylamino)-2-(4-chlorophenylhydrazono)acetophenone] | 5.34
O=C(C(=NNc1ccc(Cl)cc1)Nc1ccc(Cl)cc1)c1ccccc1 [Compound 12, 2-(4-chlorophenylamino)-2-(4-chlorophenylhydrazono)acetophenone] | 4.84
CCOC(=O)C(=NNc1ccc(Cl)cc1)Nc1ccc(Cl)cc1 [Compound 14, ethyl 1-(4-chlorophenylamino)-1-(4-chlorophenylhydrazono)acetate] | 1.87
CCOC(=O)C(=NNc1ccc(Cl)cc1)Nc1cccc(C(F)(F)F)c1 [Compound 16, ethyl 1-(4-chlorophenylhydrazono)-1-(3-trifluoromethylphenylamino)acetate] | 3.94
CCOC(=O)C(=NNc1ccc(Cl)cc1)Nc1cc(F)cc(F)c1 [Compound 17, ethyl 1-(4-chlorophenylhydrazono)-1-(3,5-difluorophenylamino)acetate] | 1.92
CCOC(=O)C(=NNc1ccc(Cl)cc1)Nc1cc(Cl)cc(Cl)c1 [Compound 18, ethyl 1-(4-chlorophenylhydrazono)-1-(3,5-dichlorophenylamino)acetate] | 2.34
O=C(C(=NNc1ccc(Cl)cc1)Nc1ccc(Cl)cc1)N1CCCCC1 [Compound 23, [1-(4-chlorophenylamino)-1-(4-chlorophenylhydrazono)acetyl]piperidine] | 14.5
O=C(C(=NNc1ccc(Cl)cc1)Nc1cc(F)cc(F)c1)N1CCCCC1 [Compound 25, [1-(4-chlorophenylhydrazono)-1-(3,5-difluorophenylamino)acetyl]piperidine] | 11.7
CC(C)(C)NC(=O)C(=NNc1ccc(Cl)cc1)Nc1cc(Cl)cc(Cl)c1 [Compound 30, N-tert-butyl-[1-(4-chlorophenylhydrazono)-1-(3,5-dichlorophenylamino)]acetamide] | 12.3
CC(C)(C)NC(=O)C(=NNc1ccc(Cl)cc1)Nc1ccc(Cl)c(Cl)c1 [Compound 31, N-tert-butyl-[1-(4-chlorophenylhydrazono)-1-(3,4-dichlorophenylamino)]acetamide] | 10.5
CC(C)(C)C(=O)C(=NNc1ccc(Cl)cc1)Nc1cc(F)cc(F)c1 [Compound 34, 1-(4-chlorophenylhydrazono)-1-(3,5-difluorophenylamino)-3,3-dimethyl-2-butanone] | 1.22
CC(C)(C)C(=O)C(=NNc1ccc(Cl)cc1)Nc1cc(Cl)nc(Cl)c1 [Compound 35, 1-(4-chlorophenylhydrazono)-1-(2,6-dichloropyridin-4-ylamino)-3,3-dimethyl-2-butanone] | 7.49
CC(C)(C)C(=O)C(=NNc1ccc(Cl)cc1)Nc1cccc(C(F)(F)F)c1 [Compound 36, 1-(4-chlorophenylhydrazono)-1-(3-trifluoromethylphenylamino)-3,3-dimethyl-2-butanone] | 2.53

Compound | IC50 [µM]
CC(C)(C)C(=O)C(=NNc1ccc(Cl)cc1)Nc1cc(Cl)cc(Cl)c1 [Compound 37, 1-(4-chlorophenylhydrazono)-1-(3,5-dichlorophenylamino)-3,3-dimethyl-2-butanone] | 0.49
CC(C)(C)C(=O)C(=NNc1ccc(Cl)cc1)Nc1ccc(Cl)c(Cl)c1 [Compound 38, 1-(4-chlorophenylhydrazono)-1-(3,4-dichlorophenylamino)-3,3-dimethyl-2-butanone] | 0.31
CC(C)(C)C(=O)C(=NNc1ccccc1)Nc1cc(Cl)cc(Cl)c1 [Compound 51, 1-(3,5-dichlorophenylamino)-1-(phenylhydrazono)-3,3-dimethyl-2-butanone] | 2.44
CC(C)(C)C(=O)C(=NNc1ccc(F)cc1)Nc1ccc(Cl)cc1 [Compound 55, 1-(4-chlorophenylamino)-1-(4-fluorophenylhydrazono)-3,3-dimethyl-2-butanone] | 2.75
CC(C)(C)C(=O)C(=NNc1ccc(F)cc1)Nc1ccc(Br)cc1 [Compound 56, 1-(4-bromophenylamino)-1-(4-fluorophenylhydrazono)-3,3-dimethyl-2-butanone] | 2.16
CC(C)(C)C(=O)C(=NNc1ccc(F)cc1)Nc1ccc(C(F)(F)F)cc1 [Compound 58, 1-(4-fluorophenylhydrazono)-1-(4-trifluoromethylphenylamino)-3,3-dimethyl-2-butanone] | 5.72
CC(C)(C)C(=O)C(=NNc1ccc(F)cc1)Nc1cc(Cl)cc(Cl)c1 [Compound 59, 1-(3,5-dichlorophenylamino)-1-(4-fluorophenylhydrazono)-3,3-dimethyl-2-butanone] | 1.39
CC(C)(C)C(=O)C(=NNc1ccc(F)cc1)Nc1ccc(Cl)c(Cl)c1 [Compound 60, 1-(3,4-dichlorophenylamino)-1-(4-fluorophenylhydrazono)-3,3-dimethyl-2-butanone] | 1.02
CC(C)(C)C(=O)C(=NNc1ccc(C(F)(F)F)cc1)Nc1cccc(F)c1 [Compound 66, 1-(3-fluorophenylamino)-1-(4-trifluoromethylphenylhydrazono)-3,3-dimethyl-2-butanone] | 7.05
CC(C)(C)C(=O)C(=NNc1ccc(C(F)(F)F)cc1)Nc1ccc(Cl)cc1 [Compound 68, 1-(4-chlorophenylamino)-1-(4-trifluoromethylphenylhydrazono)-3,3-dimethyl-2-butanone] | 9.09
CC(C)(C)C(=O)C(=NNc1ccc(C(F)(F)F)cc1)Nc1ccc(Cl)c(Cl)c1 [Compound 72, 1-(3,4-dichlorophenylamino)-1-(4-trifluoromethylphenylhydrazono)-3,3-dimethyl-2-butanone] | 3.64
CC(C)(C)C(=O)C(=NNc1ccc(Br)cc1)Nc1ccc(C#N)cc1 [Compound 77, 1-(4-bromophenylhydrazono)-1-(4-cyanophenylamino)-3,3-dimethyl-2-butanone] | 1.51
CC(C)(C)C(=O)C(=NNc1ccc(C#N)cc1)Nc1cccc(F)c1 [Compound 81, 1-(4-cyanophenylhydrazono)-1-(3-fluorophenylamino)-3,3-dimethyl-2-butanone] | 5.52
CC(C)(C)C(=O)C(=NNc1ccc(C#N)cc1)Nc1ccc(F)cc1 [Compound 82, 1-(4-cyanophenylhydrazono)-1-(4-fluorophenylamino)-3,3-dimethyl-2-butanone] | 5.07
C#Cc1ccc(NC(=NNc2ccc(C#N)cc2)C(=O)C(C)(C)C)cc1 [Compound 86, 1-(4-cyanophenylhydrazono)-1-(4-ethynylphenylamino)-3,3-dimethyl-2-butanone] | 6.64
COc1ccc(NC(=NNc2ccc(C#N)cc2)C(=O)C(C)(C)C)cc1 [Compound 87, 1-(4-cyanophenylhydrazono)-1-(4-methoxyphenylamino)-3,3-dimethyl-2-butanone] | 14
